Data set [1] relates to HeLa. Description: MTT cytotoxicity assay, cervical cancer. The format is cell-based. To be noted: for IC50: 72 h, MTT, read-out: IC50 ± SEM, HeLa; for cytotoxicity lower than doxorubicin: ratio of IC50. The protocol: (§1) Cell lines were obtained from the American Type Culture Collection: U-87 MG (ATCC number HBT-14), MCF7 (ATCC number HTB-22), A549 (ATCC number CRM-CCL), HeLa (ATCC number CCL-2). Immortalized human fibroblasts hTERT (as noncancerous control) were obtained from ICG SB RAS (Novosibirsk, Russia). DMEM with 10% fetal bovine serum (Gibco, Amarillo, TX, USA) was used for culturing. Optical density was measured on a Multiskan RC spectrophotometer (LabSystems, Vantaa, Finland). The MTT test was carried out according to the standard procedure using the reagent 3-(4,5-dimethylthiazol-2-yl)-2,5-diphen-yltetrazolium bromide (MTT, Sigma). Cells were seeded in 96 well plates at 5000 cells/well and incubated for 24 h at 37 C in 5% CO2. After 24 h, various concentrations of test compounds ([…]) in DMSO were added and the cells were incubated for an additional 72 h. The viability for DMSO (negative control) was calculated as 100%. All culture experiments were carried out independently three times with two repeats in the experiment, and the final result is presented as concentration, which causes 50% inhibition of cell population growth (IC50 ± SEM).

Data set [2] concerns U-87 MG. Briefly: MTT cytotoxicity assay, glioblastoma. To be noted: for IC50: Homo sapiens, U-87 MG, 72 h, read-out: IC50 ± SEM, U-87 MG. The format is cell-based, human. The protocol: (§2) The cytotoxicity study of the quinolinones 2–3 was evaluated in vitro by MTT assay on immortalized humane fibroblasts (hTERT), humane breast cancer cell line (MCF7) and humane glioblastoma cell line (U-87MG and) versus doxorubicin as a reference compound.
as §1
In general terms: Tetrazolium dyes change colour on reduction, which living cells bring about.

For data set [3], the system named is hTERT. Description: MTT cytotoxicity assay, immortalized fibroblasts. Format: cell-based, human. The note with it: for IC50: Homo sapiens, Fibroblast, 72 h, read-out: IC50 ± SEM, hTERT. Here is the method:
as §2, §1

In data set [4] the test system is A549. Description: MTT cytotoxicity assay, A549. To be noted: Homo sapiens, 72 h, read-out: IC50 ± SEM, A549. The format is cell-based. Here is the method:
as §1

Data set [5] has as its system MCF7. Briefly: MTT cytotoxicity assay, breast cancer. Format: cell-based, human. The note with it: for IC50: Homo sapiens, MCF7, 72 h, read-out: IC50 ± SEM, MCF7. Here is the method: as §2, §1
In data set [6] the test system is Concanavalin A-Induced Inflammation. Briefly: Concanavalin A-induced mouse paw edema model. To be noted: for anti-inflammatory effect (in words): 20 mg/kg i.p.; for inhibition in vivo at 20 mg/kg: Mus musculus, ip, anti-inflammatory activity relative to control group, read-out: Concanavalin A-Induced Inflammation AIA, %; for inhibition in vivo at 20 mg/kg / Concanavalin A-Induced Inflammation IEI, %: 20 mg/kg i.p. twice; for Concanavalin A-Induced Inflammation IEI, %: inflammatory edema index, 24 h and 1 h before phlogogen, mean ± SEM; for activity higher than that of indomethacin (reference drug): 20 mg/kg double i.p. administration. The format is in vivo, C57BL/6 female mice. The source says: (§3) The anti-inflammatory activity of the synthesized compounds was investigated in vivo in comparison with indomethacin on two models of local inflammation induced by histamine or concanavalin A injection. The last one was used as the inductor of allergic-like inflammation, owing to its immunogenic activity. The results were expressed as values of inflammatory edema indexes (IEI) and percentages of anti-inflammatory activity (AIA) relative to the control group (Table 1).
(§4) The pharmacological studies were carried out on outbred albino male mice and C57BL/6 female mice weighing 20–25 g with eight animals in each group. The anti-inflammatory activity of compounds 2–3 was evaluated in the histamine-induced and concanavalin A-induced mouse paw edema models. The test compounds were dissolved in saline containing 0.5% Tween 80 just before intraperitoneal administration at the dose of 20 mg/kg. The reference agent indomethacin (‘Fluka BioChemica’) was administered by the same method and dose. The control group of animals received an equivalent volume of water–Tween mixture.
The 8 female mice C57Bl/6 were subplantar injected into the hind paw with 0.02 mL 0.5% concanavaline A (“Sigma Aldrich”) aqueous solution. The test compounds were administered twice 24 h and 1 h before phlogogen. The animals were sacrificed by cervical dislocation 1 h after the phlogogen injection.
(§5) Both hind paws were cut off at the ankle joint and weighed. The ratio of the difference in weight between the treated and untreated hind paws to the weight of the untreated hind paw was used as an inflammatory edema index (IEI). The relative percentage of IEI versus control IEI (100%) was calculated for each test group. The anti-inflammatory activity (AIA) was presented as a difference between 100% in the control group and relative percentage of IEI in the test group.

In data set [7] the test system is Histamine-Induced Inflammation. Description: Histamine-induced mouse paw edema model. To be noted: for anti-inflammatory effect (in words) / inhibition in vivo at 20 mg/kg: 20 mg/kg i.p.; for inhibition in vivo at 20 mg/kg: Mus musculus, ip, anti-inflammatory activity relative to control group, read-out: Histamine-Induced Inflammation AIA, %; for Histamine-Induced Inflammation IEI, %: inflammatory edema index, 20 mg/kg i.p. 1 h before histamine, mean ± SEM. Format: in vivo, outbred albino male mice.
From the text: as §3, §4
The 8 outbred male albino mice were subplantar injected into the hind paw with 0.05 mL 0.01% histamine (“Sigma Aldrich”, Saint Louis, MO, USA) in water solution. The tested compounds were administered 1 h before the histamine injection. The animals were sacrificed by cervical dislocation 5 h after the phlogogen injection.
as §5

Values joined by “and” are separate entries in the source; they are usually repeats but may differ in a detail not shown here. Identical values can stand only once. Like-named read-outs stand apart in the source and are kept apart here.

In general, IC50 refers to the concentration that gives 50% inhibition. As a reminder, the melting point is the temperature, or range, at which the solid turns liquid. Consider `CC(=O)c1ccc(C(=O)c2c(-c3ccccc3)nc3c4c(cccc24)C(=O)c2ccccc2-3)cc1` [2b, 2-benzo-3-(p-acetylbenzoyl)-7H-dibenzo[de,h]quinolin-7-one], for which the melting point was 312 to 313 °C. Also, the concentration for half-maximal inhibition (IC50) in data set [1] (Homo sapiens, HeLa) is over 100 µM. Also, the 50% inhibitory concentration (IC50) in data set [2] is over 100 µM. In addition, in data set [3], the concentration for half-maximal inhibition (IC50) is over 100 µM. In addition, the half-maximal inhibitory concentration (IC50) in data set [4] was over 100 µM. For the same compound, in data set [5], the IC50 was over 100 µM. Moreover, in data set [6], the “anti-inflammatory effect (in words)” value is listed as “most potent effects”; the inhibition in vivo at 20 mg/kg turned out to be 43%; the “Concanavalin A-Induced Inflammation IEI, %” value is on record as 21.4 ± 1.6 %. In data set [7], the “anti-inflammatory effect (in words)” value is “most potent effects”; the inhibition in vivo at 20 mg/kg came to 33%; the “Histamine-Induced Inflammation IEI, %” value was 23.0 ± 1.9 %.
For `COc1cccc2c1C(=O)c1c(O)c3c(c(O)c1C2=O)C[C@@](O)(C(=O)CO)C[C@@H]3O[C@H]1C[C@H](N)[C@H](O)[C@H](C)O1` [Doxorubicin, doxorubicin, reference compound], the half-inhibitory concentration (IC50) in data set [1] (Homo sapiens, HeLa) came out at 6 ± 1 µM; in data set [2] it was 2.3 ± 0.6 µM; in data set [3] it was 4.1 ± 1 µM; in data set [4], 4.05 ± 0.9 µM; in data set [5] it was 3.6 ± 0.4 µM.
`COc1ccc(-c2cc3cccc4c3c(n2)-c2ccccc2C4=O)cc1` [3d, 2-(p-methoxyphenyl)-7H-dibenzo[de,h]quinolin-7-one] had a melting point of 203 to 204 °C. In addition, in data set [1] (Homo sapiens, HeLa), the half-inhibitory concentration (IC50) is over 100 µM. Further, in data set [2], the 50% inhibitory concentration (IC50) is over 100 µM. Further, in data set [3], the 50% inhibitory concentration (IC50) was over 100 µM. The IC50 in data set [4] was over 100 µM. In addition, in data set [5], the half-maximal inhibitory concentration (IC50) is over 100 µM. Further, in data set [6], the “activity higher than that of indomethacin (reference drug)” value (“activity higher than that” for short) was 1.5 times and 1.3–1.4 times; the inhibition in vivo at 20 mg/kg was 60%; the “Concanavalin A-Induced Inflammation IEI, %” value is reported as 15.2 ± 1.6 %. In data set [7], the inhibition in vivo at 20 mg/kg stood at 42% and the “Histamine-Induced Inflammation IEI, %” value turned out to be 19.9 ± 2.6 %.
Consider `CN(C)c1ccc(-c2cc3cccc4c3c(n2)-c2ccccc2C4=O)cc1` [3i], for which the IC50 in data set [1] (Homo sapiens, HeLa) is over 100 µM; in data set [2] it was over 100 µM; in data set [3], over 100 µM; in data set [4] it was over 100 µM; in data set [5] it was over 100 µM. Also, in data set [6], the “activity higher than that” value is 1.3–1.4 times. For the same compound, the “anti-inflammatory effect (in words)” value in data set [6] and in data set [7] was “most potent effects” throughout. The inhibition in vivo at 20 mg/kg in data set [6] stood at 51%; in data set [7], 34%. Besides, the “Concanavalin A-Induced Inflammation IEI, %” value in data set [6] was 18.5 ± 1.6 %. In data set [7], the “Histamine-Induced Inflammation IEI, %” value is listed as 22.6 ± 2.3 %.
As to `Cc1c(-c2cc3cccc4c3c(n2)-c2ccccc2C4=O)cnn1C` [3k], the “cytotoxicity lower than doxorubicin” value in data set [1] (HeLa) is 3.5 times. For the same compound, the IC50 in data set [1] (Homo sapiens, HeLa) is 21.3 µM; in data set [1], 22.7 ± 7.3 µM; in data set [2], over 100 µM; in data set [3], over 100 µM; in data set [4] it was over 100 µM; in data set [5], over 100 µM. In data set [3], the “cytotoxic effect on immortal fibroblasts (in words)” value was “did not have a cytotoxic effect”. Moreover, the inhibition in vivo at 20 mg/kg in data set [6] was 18%; in data set [7], 34%. Further, the “Concanavalin A-Induced Inflammation IEI, %” value in data set [6] is 31.1 ± 2.4 %. Further, in data set [7], the “Histamine-Induced Inflammation IEI, %” value came to 22.7 ± 1.7 %.
Regarding `CCCCCc1cc2cccc3c2c(n1)-c1ccccc1C3=O` [3h], the half-maximal inhibitory concentration (IC50) in data set [1] (Homo sapiens, HeLa) is over 100 µM; in data set [2], over 100 µM; in data set [3], over 100 µM; in data set [4], over 100 µM; in data set [5], over 100 µM. Moreover, the “activity higher than that” value in data set [6] is listed as 1.3–1.4 times. Further, the inhibition in vivo at 20 mg/kg in data set [6] was 48%; in data set [7], 30%. The “Concanavalin A-Induced Inflammation IEI, %” value in data set [6] came to 19.7 ± 2.3 %. The “Histamine-Induced Inflammation IEI, %” value in data set [7] worked out at 23.9 ± 1.7 %.
As to `COc1ccc(C(=O)c2c(-c3ccccc3)nc3c4c(cccc24)C(=O)c2ccccc2-3)cc1` [2d, 2-benzo-3-(p-methoxybenzoyl)-7H-dibenzo[de,h]quinolin-7-one], the melting point fell in the range of 279 to 280 °C. Moreover, in data set [1] (Homo sapiens, HeLa), the IC50 is over 100 µM. In addition, the IC50 in data set [2] was over 100 µM. Besides, the half-maximal inhibitory concentration (IC50) in data set [3] was over 100 µM. For the same compound, the IC50 in data set [4] was over 100 µM. Further, the IC50 in data set [5] is over 100 µM. For the same compound, in data set [6], the “anti-inflammatory effect (in words)” value was “most potent effects”; the inhibition in vivo at 20 mg/kg was determined as 26%; the “Concanavalin A-Induced Inflammation IEI, %” value amounted to 27.9 ± 1.2 %. Moreover, in data set [7], the “anti-inflammatory effect (in words)” value is listed as “most potent effects”; the inhibition in vivo at 20 mg/kg came to 34%; the “Histamine-Induced Inflammation IEI, %” value came to 22.7 ± 2.3 %.
In turn, `O=C1c2ccccc2-c2nc(-c3ccc([N+](=O)[O-])cc3)cc3cccc1c23` [3c, 2-(p-nitrophenyl)-7H-dibenzo[de,h]quinolin-7-one] had a melting point of 295 to 296 °C.
Turning to `CC(C)(O)c1cc2cccc3c2c(n1)-c1ccccc1C3=O` [3j], the “cytotoxicity lower than doxorubicin” value in data set [1] (HeLa) worked out at 3.5 times. Besides, the 50% inhibitory concentration (IC50) in data set [1] (Homo sapiens, HeLa) was 21.3 ± 5.9 µM. Besides, in data set [2], the “antitumor effect on multiform glioblastoma cell culture (in words)” value is recorded as “weak antitumor effect” and the IC50 came to 50.1 ± 5.9 µM. In data set [3], the “cytotoxic effect on immortal fibroblasts (in words)” value was “did not have a cytotoxic effect” and the 50% inhibitory concentration (IC50) is over 100 µM. In data set [4], the IC50 was over 100 µM. Also, in data set [5], the “antitumor effect on breast cancer cell culture (in words)” value is on record as “weak antitumor effect” and the half-maximal inhibitory concentration (IC50) was 92.9 ± 7.2 µM. Further, in data set [6], the inhibition in vivo at 20 mg/kg was determined as 41% and the “Concanavalin A-Induced Inflammation IEI, %” value was 22.1 ± 2.5 %. Besides, in data set [7], the inhibition in vivo at 20 mg/kg came to 16% and the “Histamine-Induced Inflammation IEI, %” value came to 28.9 ± 2.0 %.
In turn, `COc1ccc(C(=O)c2c(C)nc3c4c(cccc24)C(=O)c2ccccc2-3)cc1` [4d, 2-methyl-3-(p-methoxybenzoyl)-7H-dibenzo[de,h]quinolin-7-one] gave a melting point of 232.5 to 233.5 °C.
Regarding `COc1ccc2c(c1)c(CC(=O)O)c(C)n2C(=O)c1ccc(Cl)cc1` [Indomethacin, indomethacin, reference compound], in data set [6], the inhibition in vivo at 20 mg/kg stood at 38% and the “Concanavalin A-Induced Inflammation IEI, %” value was 23.4 ± 2.2 %. Also, in data set [7], the inhibition in vivo at 20 mg/kg amounted to 48% and the “Histamine-Induced Inflammation IEI, %” value was 17.8 ± 2.7 %.

The values above are taken from publication PMC8621605, “Cascade Transformations of 1-R-Ethynyl-9,10-anthraquinones with Amidines: Expanding Access to Isoaporphinoid Alkaloids” (Molecules, 2021).
